Measured values taken from US10294202B2, “Pyrrolidinones as herbicides” (FMC Corporation, priority 2013, dated 2019).

Tests used:
pigweed [1] = assay: Test A pre-/postemergence herbicide test; format: in vivo, Amaranthus retroflexus
Method in brief: (§1)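 Visual 0–100 ratings (100 = complete control) made about 10 days after treatment, greenhouse-held plants compared with untreated controls. Treatments: postemergence sprays on one- to two-leaf plants (2–10 cm tall) and preemergence directed soil sprays after planting in loam–sand, chemicals formulated in non-phytotoxic solvent containing surfactant.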

pigweed [2] = assay: Test C pre-/postemergence herbicide test; format: in vivo, Amaranthus retroflexus; settings: Preemergence
Method in brief: (§2)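 Greenhouse plants scored visually against untreated controls 13–15 days after treatment, 0 = no effect, 100 = complete control. Test chemicals in a non-phytotoxic solvent with surfactant were applied either to soil (loam/sand) at planting or to foliage of 1- to 4-leaf plants, 2–18 cm tall.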

johnsongrass = assay: Test C pre-/postemergence herbicide test; format: in vivo, Sorghum halepense; settings: Preemergence
Method in brief: as §2

velvetleaf = assay: Test C pre-/postemergence herbicide test; format: in vivo, Abutilon theophrasti; settings: Preemergence
Excerpt: (§3) Seeds of plant species selected from blackgrass (Alopecurus myosuroides), ryegrass, Italian (Italian ryegrass, Lolium multiflorum), wheat (winter wheat, Triticum aestivum), galium (catchweed bedstraw, Galium aparine), corn (Zea mays), crabgrass, large (large crabgrass, Digitaria sanguinalis), foxtail, giant (giant foxtail, Setaria faberii), johnsongrass (Sorghum halepense), lambsquarters (Chenopodium album), morningglory (Ipomoea coccinea), nutsedge, yellow (yellow nutsedge, Cyperus esculentus), pigweed (Amaranthus retroflexus), ragweed (common ragweed, Ambrosia elatior), soybean (Glycine max), barnyardgrass (Echinochloa crus-galli), oilseed rape (Brassica napus), waterhemp (common waterhemp, Amaranthus rudis), kochia (Kochia scoparia), oat, wild (wild oat, Avena fatua), surinam grass (Brachiaria decumbens), foxtail, green (green foxtail, Setaria viridis), goosegrass (Eleusine indica), bromegrass, downy (downy bromegrass, Bromus tectorum), nightshade (eastern black nightshade, Solanum ptycanthum), cocklebur (common cocklebur, Xanthium strumarium), cupgrass, woolly (woolly cupgrass, Eriochloa villosa), bermudagrass (Cynodon dactylon), sunflower, (common oilseed sunflower, Helianthus annuus), Russian thistle (Salsola kali) and velvetleaf (Abutilon theophrasti) were planted into a blend of loam soil and sand and treated preemergence with test chemicals formulated in a non-phytotoxic solvent mixture which included a surfactant. At the same time, plants selected from these crop and weed species and also barley (winter barley, Hordeum vulgare), […]), chickweed (common chickweed, Stellaria media), deadnettle (henbit deadnettle, Lamium amplexicaule), and canarygrass (littleseed canarygrass, Phalaris minor) were planted in pots containing Redi-Earth® planting medium (Scotts Company, 14111 Scottslawn Road, Marysville, Ohio 43041) comprising spaghnum peat moss, vermiculite, wetting agent and starter nutrients and treated with postemergence applications of test chemicals formulated in the same manner. Plants ranged in height from 2 to 18 cm (1- to 4-leaf stage) for postemergence treatments. Treated plants and controls were maintained in a greenhouse for 13 to 15 days, after which time all species were compared to controls and visually evaluated. Plant response ratings, summarized in Table C, are based on a scale of 0 to 100 where 0 is no effect and 100 is complete control. A dash (-) response means no test result.

lambsquarters = assay: Test C pre-/postemergence herbicide test; format: in vivo, Chenopodium album; settings: Preemergence
Excerpt: as §3

foxtail, giant = assay: Test C pre-/postemergence herbicide test; format: in vivo, Setaria faberii; settings: Preemergence; for Foxtail, Giant plant response rating: 31 g ai/ha
Excerpt: as §3

nutsedge, yellow = assay: Test C pre-/postemergence herbicide test; format: in vivo, Cyperus esculentus; settings: Preemergence
Excerpt: as §3

wheat = assay: Test A pre-/postemergence herbicide test; format: in vivo, Triticum aestivum
Method in brief: as §1

corn = assay: Test C pre-/postemergence herbicide test; format: in vivo, Zea mays; settings: Preemergence; for Corn plant response rating: 31 g ai/ha
Excerpt: as §3

galium = assay: Test C pre-/postemergence herbicide test; format: in vivo, Galium aparine; settings: Preemergence; for Galium plant response rating: 31 g ai/ha
Excerpt: as §3

[3] = Postemergence, 125 g ai/ha, 0 to 100 scale, 0 no effect, 100 complete control
[4] = Postemergence, 500 g ai/ha, 0 to 100 scale (0 no effect, 100 complete control)
[5] = Preemergence, 125 g ai/ha, visual rating on 0 to 100 scale (0 no effect, 100 complete control)
[6] = preemergence, 500 g ai/ha, 0 to 100 scale
[7] = 125 g ai/ha, scale 0 to 100 (0 no effect, 100 complete control)
[8] = scale 0 to 100 (0 no effect, 100 complete control)
[9] = 250 g ai/ha, scale 0 to 100 (0 no effect, 100 complete control)
[10] = Postemergence, 1000 g ai/ha, 0 to 100 scale (0 no effect, 100 complete control)
[11] = Preemergence, 1000 g ai/ha, visual rating on 0 to 100 scale (0 no effect, 100 complete control), approx. 10 days

Structure (SMILES)	Plant response rating, Pigweed (pigweed [2]; 62 g ai/ha, scale 0 to 100)	Plant response rating, Johnsongrass (johnsongrass; 62 g ai/ha, scale 0 to 100)	Plant response rating, Johnsongrass (johnsongrass; [7])	Plant response rating, Velvetleaf (velvetleaf; 62 g ai/ha, scale 0 to 100)	Plant response rating, Velvetleaf (velvetleaf; [7])	Plant response rating, Lambsquarters (lambsquarters; 62 g ai/ha, scale 0 to 100)	Plant response rating, Lambsquarters (lambsquarters; [7])	Foxtail, Giant plant response rating (foxtail, giant; [8])	Plant response rating, Foxtail, Giant (foxtail, giant; 62 g ai/ha, scale 0 to 100)	Plant response rating, Foxtail, Giant (foxtail, giant; [7])	Plant response rating, Foxtail, Giant (foxtail, giant; [9])	Plant response rating, Nutsedge, Yellow (nutsedge, yellow; 62 g ai/ha, scale 0 to 100)	Corn plant response rating (corn; [8])	Plant response rating, Corn (corn; 62 g ai/ha, scale 0 to 100)	Plant response rating, Corn (corn; [7])	Plant response rating, Corn (corn; [9])	Galium plant response rating (galium; [8])	Plant response rating, Galium (galium; 62 g ai/ha, scale 0 to 100)	Plant response rating, Galium (galium; [7])	Plant response rating, Galium (galium; [9])	other results
O=C1NCC(c2ccc(F)c(Cl)c2)C1C(=O)Nc1cccc(F)c1F (stereo not drawn) [Compound 59]	35	0	0	0	0	0	0	50	85	85	90	0	0	10	10	45	0	5	30	85	Plant response rating, Pigweed (pigweed [1]; [3]): 0; Plant response rating, Pigweed (pigweed [1]; [4]): 40; Pigweed plant response rating (pigweed [1]; [5]): 0; Plant response rating, Pigweed (pigweed [1]; [6]): 0; Plant response rating, Nutsedge, Yellow (nutsedge, yellow; [7]): 0; Plant response rating, Wheat (wheat; [3]): 0; Plant response rating, Wheat (wheat; [4]): 60; Wheat plant response rating (wheat; [5]): 0; Plant response rating, Wheat (wheat; [6]): 0
O=C1NCC(c2cc(F)c(F)c(F)c2)C1C(=O)Nc1ccccc1C(F)(F)F (racemic) [Compound 33]	0	0	0	10	10	0	25	75	95	98	98	10	0	10	20	30	0	0	60	90	Plant response rating, Pigweed (pigweed [1]; [10]): 0; Plant response rating, Pigweed (pigweed [1]; [11]): 0; Plant response rating, Pigweed (pigweed [2]; [7]): 0; Plant response rating, Wheat (wheat; [10]): 60; Plant response rating, Wheat (wheat; [11]): 50
